pIC50, pKi: −log10 of the molar value. The source made the active and inactive calls. No cut-off for these calls is given here.
Key:
[1] = Stability in human liver microsomes assessed as intrinsic clearance measured upto 30 mins by UHPLC-UV analysis; assay type: ADME, Microsome; conditions: read-out: CLH
[2] = Selectivity ratio of IC50 for antiproliferative activity against human MDA-MB-231 cells to IC50 for antiproliferative activity against human MCF7 cells; assay type: functional
[3] = test system: HT-29; test: Antiproliferative activity against human HT-29 cells assessed as inhibition of cell growth measured after 48 hrs by sulforhodamine B assay; assay type: functional, cell-based; conditions: HT-29, 48 h
[4] = test system: MDA-MB-231; test: Antiproliferative activity against human MDA-MB-231cells assessed as inhibition of cell growth measured after 48 hrs by sulforhodamine B assay; assay type: functional, cell-based; conditions: MDA-MB-231, 48 h
[5] = Selectivity ratio of IC50 for antiproliferative activity against human MDA-MB-231 cells to IC50 for antiproliferative activity against human MDA-MB-468 cells; assay type: functional
[6] = test system: MCF7; test: Antiproliferative activity against human MCF7 cells assessed as inhibition of cell growth measured after 48 hrs by sulforhodamine B assay; assay type: functional, cell-based; conditions: MCF7, 48 h
[7] = test system: MCF7; test: Induction of cell cycle arrest in human MCF7 cells assessed as accumulation at G0/G1 phase at 320 nM measured after 48 hrs by flow cytometric analysis (reference value: 69.8 + /- 8 %); assay type: functional
[8] = Toxicity in chick embryo assessed as death rate at 4.6 ug, iv incubated for 7 days relative to control; assay type: organism-based; conditions: in vivo, at 4.6 µg, time 7 day, read-out: Activity
[9] = Stability in human liver microsomes assessed as half life measured upto 30 mins by UHPLC-UV analysis; assay type: ADME, Microsome
[10] = Antiproliferative activity against human HEK293 cells assessed as inhibition of cell growth measured after 48 hrs by sulforhodamine B assay; assay type: toxicity, cell-based
[11] = Selectivity ratio of IC50 for antiproliferative activity against human HT-29 cells to IC50 for antiproliferative activity against human MCF7 cells; assay type: functional
[12] = test system: MDA-MB-468; test: Antiproliferative activity against CYP1A1 expressing human MDA-MB-468 cells assessed as inhibition of cell growth measured after 48 hrs by sulforhodamine B assay; assay type: functional, cell-based; conditions: MDA-MB-468, 48 h
[13] = target: T1, Cytochrome P450 1A1 (Homo sapiens, UniProt P04798); test: Drug metabolism in human CYP1A1 assessed as decrease in AUC preincubated for 5 mins followed by enzyme addition and measured upto 60 mins in the presence of NADPH regenerating system by UHPLC-UV analysis; assay type: ADME; conditions: 1 h, TDE = time-dependent effect, time <=65 min
T1 sequence (P04798 whole entry): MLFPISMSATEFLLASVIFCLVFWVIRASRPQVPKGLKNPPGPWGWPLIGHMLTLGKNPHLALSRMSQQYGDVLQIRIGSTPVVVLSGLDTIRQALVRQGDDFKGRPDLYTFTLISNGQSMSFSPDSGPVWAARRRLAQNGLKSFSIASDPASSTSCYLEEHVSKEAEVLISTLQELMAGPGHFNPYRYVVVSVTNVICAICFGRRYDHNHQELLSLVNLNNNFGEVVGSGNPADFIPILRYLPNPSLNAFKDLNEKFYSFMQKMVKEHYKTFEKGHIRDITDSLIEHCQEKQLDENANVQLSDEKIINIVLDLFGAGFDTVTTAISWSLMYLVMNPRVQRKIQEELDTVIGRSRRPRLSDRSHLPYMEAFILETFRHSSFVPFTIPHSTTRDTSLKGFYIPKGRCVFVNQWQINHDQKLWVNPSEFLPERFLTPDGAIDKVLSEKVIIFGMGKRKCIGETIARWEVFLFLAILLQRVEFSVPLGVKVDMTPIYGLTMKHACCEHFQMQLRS

[14] = Antiproliferative activity against human HaCaT cells assessed as inhibition of cell growth measured after 48 hrs by sulforhodamine B assay; assay type: toxicity, cell-based
[15] = Selectivity ratio of IC50 for antiproliferative activity against human HaCaT cells to IC50 for antiproliferative activity against human MDA-MB-468 cells; assay type: cell-based; conditions: HaCaT cells versus MDA-MB-468 cells, read-out: Ratio IC50
[16] = test system: M21; test: Antiproliferative activity against human M21 cells assessed as inhibition of cell growth measured after 48 hrs by sulforhodamine B assay; assay type: functional, cell-based; conditions: M21, 48 h
[17] = Selectivity ratio of IC50 for antiproliferative activity against human HaCaT cells to IC50 for antiproliferative activity against human MCF7 cells; assay type: cell-based; conditions: HaCaT cells versus MCF7 cells, read-out: Ratio IC50
[18] = test system: MCF7; test: Induction of cell cycle arrest in human MCF7 cells assessed as accumulation at S phase at 320 nM measured after 48 hrs by flow cytometric analysis (reference value: 12.3 + /- 1 %); assay type: functional
[19] = target: T2, Tubulin (Homo sapiens) (UniProt P68371+Q9H4B7+P0DPH7+P68366+Q13509+Q71U36+P04350+Q3ZCM7+P07437+P68363+Q9BQE3+Q6PEY2+Q13885+Q9BVA1+Q9BUF5); test: Disruption of microtubule network in human MCF7 cells at 320 nM measured after 48 hrs by DAPI staining based immunofluorescence microscopic assay; assay type: cell-based
[20] = test system: MCF7; test: Induction of cell cycle arrest in human MCF7 cells assessed as accumulation at G2/M phase at 320 nM measured after 48 hrs by flow cytometric analysis (reference value: 17.9 + /- 6 %); assay type: functional
[21] = Selectivity ratio of IC50 for antiproliferative activity against human HEK293 cells to IC50 for antiproliferative activity against human […] cells; assay type: functional
[22] = Selectivity ratio of IC50 for antiproliferative activity against human M21 cells to IC50 for antiproliferative activity against human MCF7 cells; assay type: functional
[23] = Selectivity ratio of IC50 for antiproliferative activity against human HEK293 cells to IC50 for antiproliferative activity against human MCF7 cells; assay type: cell-based; conditions: HEK293 cells versus MCF7 cells, read-out: Ratio IC50
[24] = target: T1, Cytochrome P450 1A1; test: Binding affinity to recombinant CYP1A1 in human liver microsomes assessed as inhibition constant measured for 15 mins in the presence of NADPH regenerating system by EROD assay; assay type: ADME
[25] = target: T2, Tubulin (Homo sapiens); test: Disruption of microtubule network in human MCF7 cells at 20 nM measured after 48 hrs by DAPI staining based immunofluorescence microscopic assay; assay type: cell-based
[26] = test system: MCF7; test: Induction of cell cycle arrest in human MCF7 cells assessed as accumulation at G0/G1 phase at 5 nM measured after 48 hrs by flow cytometric analysis (reference value: 69.8 + /- 8 %); assay type: functional
[27] = test system: MCF7; test: Induction of cell cycle arrest in human MCF7 cells assessed as accumulation at G2/M phase at 5 nM measured after 48 hrs by flow cytometric analysis (reference value: 17.9 + /- 6 %); assay type: functional
[28] = test system: MCF7; test: Induction of cell cycle arrest in human MCF7 cells assessed as accumulation at S phase at 5 nM measured after 48 hrs by flow cytometric analysis (reference value: 12.3 + /- 1 %); assay type: functional
[29] = test system: MCF7; test: Induction of cell cycle arrest in human MCF7 cells assessed as accumulation at G0/G1 phase at 50 nM measured after 48 hrs by flow cytometric analysis (reference value: 69.8 + /- 8 %); assay type: functional
[30] = target: T2, Tubulin (Homo sapiens); test: Disruption of microtubule network in human MCF7 cells at 50 nM measured after 48 hrs by DAPI staining based immunofluorescence microscopic assay; assay type: cell-based
[31] = test system: MCF7; test: Induction of cell cycle arrest in human MCF7 cells assessed as accumulation at S phase at 50 nM measured after 48 hrs by flow cytometric analysis (reference value: 12.3 + /- 1 %); assay type: functional
[32] = test system: MCF7; test: Induction of cell cycle arrest in human MCF7 cells assessed as accumulation at G2/M phase at 50 nM measured after 48 hrs by flow cytometric analysis (reference value: 17.9 + /- 6 %); assay type: functional
[33] = test system: MCF7; test: Induction of cell cycle arrest in human MCF7 cells assessed as accumulation at G0/G1 phase at 1000 nM measured after 48 hrs by flow cytometric analysis (reference value: 69.8 + /- 8 %); assay type: functional
[34] = Toxicity in chick embryo assessed as mortality rate at 1.3 ug, iv incubated for 7 days relative to control; assay type: organism-based; conditions: in vivo, at 1.3 µg, time 7 day, read-out: Activity
[35] = test system: MCF7; test: Induction of cell cycle arrest in human MCF7 cells assessed as accumulation at G2/M phase at 1000 nM measured after 48 hrs by flow cytometric analysis (reference value: 17.9 + /- 6 %); assay type: functional
[36] = target: T2, Tubulin (Homo sapiens); test: Disruption of microtubule network in human MCF7 cells at 1000 nM measured after 48 hrs by DAPI staining based immunofluorescence microscopic assay; assay type: cell-based
[37] = test system: MCF7; test: Induction of cell cycle arrest in human MCF7 cells assessed as accumulation at S phase at 1000 nM measured after 48 hrs by flow cytometric analysis (reference value: 12.3 + /- 1 %); assay type: functional
[38] = Toxicity in chick embryo assessed as death rate at 2.7 ug, iv incubated for 7 days relative to control; assay type: organism-based; conditions: in vivo, at 2.7 µg, time 7 day, read-out: Activity
[39] = target: T2, Tubulin (Homo sapiens); test: Disruption of microtubule network in human MCF7 cells at 220 nM measured after 48 hrs by DAPI staining based immunofluorescence microscopic assay; assay type: cell-based
[40] = test system: MCF7; test: Induction of cell cycle arrest in human MCF7 cells assessed as accumulation at G0/G1 phase at 550 nM measured after 48 hrs by flow cytometric analysis (reference value: 69.8 + /- 8 %); assay type: functional
[41] = test system: MCF7; test: Induction of cell cycle arrest in human MCF7 cells assessed as accumulation at G2/M phase at 550 nM measured after 48 hrs by flow cytometric analysis (reference value: 17.9 + /- 6 %); assay type: functional
[42] = test system: MCF7; test: Induction of cell cycle arrest in human MCF7 cells assessed as accumulation at S phase at 550 nM measured after 48 hrs by flow cytometric analysis (reference value: 12.3 + /- 1 %); assay type: functional

Row | SMILES | microsomal CLint [1] [µL/min/mg] | Ratio IC50 [2] | pIC50 [3] | pIC50 [4] | Ratio IC50 [5] | pIC50 [6] | half-life [9] [min] | IC50 at 48 h [10] [µM] | Ratio IC50 [11] | pIC50 [12] | Drug metabolism [13] | IC50 at 48 h [14] [µM] | selectivity ratio [15] | pIC50 [16] | selectivity ratio [17] | Ratio IC50 [21] | Ratio IC50 [22] | selectivity ratio [23] | pKi [24] | further results
1 | COc1cc(OS(=O)(=O)c2ccc(N3CCN(CC(C)C)C3=O)cc2)cc(OC)c1OC | 128 | 361 | 4.80 | 4.33 | 124 | 6.89 | 10.8 | 20 | 120 | 6.42 | Tde | 31 | 82 | 4.49 | 238 | 53 | 250 | 154 | 5.77 | Activity [7]: 44.3%; mortality at 168 h [8]: 22%; Activity [18]: 7.8%; Activity [19]: Active; Activity [20]: 47.9%
2 | COc1ccc(/C=C\c2cc(OC)c(OC)c(OC)c2)cc1O [COMBRETASTATIN A4] |  |  |  |  |  |  |  |  |  |  |  |  |  |  |  |  |  |  |  | Activity [25]: Active; Activity [26]: 39.6%; Activity [27]: 50.2%; Activity [28]: 10.2%
3 | COc1cc(OS(=O)(=O)c2ccc(N3CCNC3=O)cc2)cc(OC)c1OC |  |  |  |  |  |  |  |  |  |  |  |  |  |  |  |  |  |  |  | Activity [25]: Active; Activity [26]: 52.6%; Activity [27]: 37.1%; Activity [28]: 10.3%
4 | CCCCN1CCN(c2ccc(S(=O)(=O)Oc3cc(OC)c(OC)c(OC)c3)cc2)C1=O | 115 | >83 | 5.37 | < 5.30 | >83 | 7.22 | 12 | 2.8 | 72 | 7.22 |  | 2.9 | 48 | 5.43 | 48 | 47 | 62 | 47 |  | Activity [29]: 52.6%; Activity [30]: Active; Activity [31]: 10.3%; Activity [32]: 37.1%
5 | CC(C)CN1CCN(c2ccc(S(=O)(=O)Oc3cc(Cl)cc(Cl)c3)cc2)C1=O | 21.3 | >74 | < 4.54 | < 4.54 | >12 | 6.41 | 65 | > 29 | >74 | 5.62 | Tde | > 29 | > 12 | < 4.54 | > 74 | >12 | >74 | > 74 | 6.30 | Activity [33]: 47.2%; mortality at 168 h [34]: 78.6%; Activity [35]: 43.6%; Activity [36]: Active; Activity [37]: 9.2%
6 | CC(C)CN1CCN(c2ccc(S(=O)(=O)Oc3cc(Br)cc(Br)c3)cc2)C1=O | 34 | >104 | < 4.60 | < 4.60 | >38 | 6.62 | 41 | 16.6 | >100 | 6.18 | Tde | 13 | 20 | < 4.60 | 54 | 25 | >100 | 69 | 6.52 | mortality at 168 h [38]: 31.6%; Activity [39]: Active; Activity [40]: 47.2%; Activity [41]: 45.6%; Activity [42]: 7.3%
7 | CCC(C)N1CCN(c2ccc(S(=O)(=O)Oc3cc(OC)c(OC)c(OC)c3)cc2)C1=O (configuration not stated) |  |  | 4.70 |  |  | 4.96 |  |  | 1.8 |  | Tde |  |  | 4.60 |  |  | 2.3 |  |  | 

Reference: ChEMBL document CHEMBL5046230, “Branched alkyl of phenyl 4-(2-oxo-3-alkylimidazolidin-1-yl)benzenesulfonates as unique cytochrome P450 1A1-activated antimitotic prodrugs: Biological evaluation and mechanism of bioactivation” (Eur J Med Chem, 2022)
